According to patent US10544144B2, “Fused pyrimidine piperidine cyclic derivative, preparation process and use thereof” (SHANGHAI ALLIST PHARMACEUTICAL AND MEDICAL TECHNOLOGY …, priority 2016, dated 2020):
Where two headings read alike, the source gives them in different places.

What was measured:
[1] = system: Human Acute Myelogenous Leukemia Cell KG-1α (FGFR1 Insertion Mutation); experiment: MTT proliferation inhibition, KG-1α cells; format: cell-based; conditions: 72 hours drug exposure
Method: (§1) The pharmacodynamic action of the compound of the present invention in terms of inhibiting the proliferation of cancer cells may be determined by conventional methods. One preferable evaluation method is MTT (Thiazolyl Blue) cell activity assay, in which the change in optical absorption value generated after the drug has acted on the cancer cells is measured, and the inhibition ratio of a drug against the proliferation of cancer cells is calculated. Inhibition ratio (%)=[(blank control OD−inhibitor OD)/blank control OD]×100%
(§2) Blank control OD: the OD value of the well of normally grew cells without the action of a drug.
(§3) Inhibitor OD: the OD value of the well of cells with the action of the added compounds to be screened.
(§4) The median inhibitory concentration (IC50) value is obtained by the software GraphPad Prism 5.0 by the 4-parameter logistic curve fit calculation. Each experiment is repeated three times, and the average IC50 value for three experiments is used as the final index for the inhibitory ability.
(§5) Proliferation Inhibition Effect on Human Acute Myelogenous Leukemia Cell KG-1α (FGFR1 Insertion Mutation), Human Gastric Cancer Cell KATO-3 (FGFR2 Amplification), Human Multiple Myeloma Cell KMS-11 (FGFR3 Y373C Mutation)
(§6) Cells in the logarithmic phase were inoculated to 96-well culture plates (cell density: 3000/well for KATO-3, 9000/well for KG-1α, 3000/well for KMS-11, cell suspension: 180 μl/well), and cultured at 37° C. under 5% CO2 for 24 hours. After the culturing, the cells adhered to the well walls. Each of compounds was dissolved in DMSO in advance to formulate a 10 mM stock solution. Upon testing, the stock solution was diluted with complete medium to 10 times the target concentration in another 96-cell plate. And then the compound was added at 20 μl/cell in the 96-well plate in which the cells were inoculated, i.e. the target concentration could be reached. The well for each concentration was triplicated, and the blank control was established. Cells continued to be cultured at 37° C. under 5% CO2 for 72 hours. After the drug acted for 72 hours, 20 μl of Thiazolyl Blue, i.e., MTT was added to each of wells. MTT was dissolved in a phosphate buffer solution free of Ca and Mg ions (D-PBSA) to formulate a 0.5% stock solution in advance. The stock solution was filtered and sterilized. Cells continued to be cultured at 37° C. under 5% CO2 for 4 hours. After 4 hours from the addition of MTT, 100 μl of 14% dimethylformamide-sodium dodecyl sulfate (DMF-SDS) was added to and dissolved in each of wells. Cells were cultured at 37° C. for 3-4 hours, and detected for the light density value (OD) at a wavelength of 570 nm. The inhibition rate was calculated based on the collected data.

[2] = system: Human Gastric Cancer Cell KATO-3 (FGFR2 Amplification); experiment: MTT proliferation inhibition, KATO-3 cells; format: cell-based
Description: The pharmacodynamic action of the compound of the present invention in terms of inhibiting the proliferation of cancer cells may be determined by conventional methods. […] Inhibition ratio (%)=[(blank control OD−inhibitor OD)/blank control OD]×100%
as §2, §3, §4, §5, §6

[3] = system: subcutaneously transplanted tumors of human bladder cancer RT112/84; experiment: Growth of subcutaneously transplanted tumors in RT112/84-bearing nude mice; format: in vivo, BALB/c nude mice; conditions: p.o., 14 days, I-5 15 or 25 mg/kg QD, I-13 50 mg/kg BID, BGJ398 15 mg/kg QD, FIG. 1
Description: The pharmacodynamic action of the compound of the present invention in terms of inhibiting the growth of transplantation tumor in animal may be assayed by conventional methods. One preferable evaluation method involves the inhibitory effect on the growth of subcutaneously transplantation tumor of human bladder cancer RT112/84-bearing nude mice. The experimental method is as follows: 5×10^6 human bladder cancer RT112/84 cells are inoculated to nude mice subcutaneously at the right side of the back thereof, and each mouse is inoculated with 0.1 ml. After the tumors grow to 100-150 mm^3 on average, the animals are divided into groups randomly according to the tumor size and the animal weight. […] During the entire experimental process, the animal weight and the tumor size are measured twice per week, so as to observe whether or not the toxic reaction occurs.
The tumor volume is calculated as follows: Tumor volume (mm^3)=0.5×(Tumor major diameter×Tumor minor diameter^2) Body weight change rate (%)=measured body weight/body weight before administration×100%. […]
Cell cultivation: RT112/84 cells were placed in a MEM medium containing 10% fetal bovine serum (FBS) and 1% non-essential amino acid (NEAA), and cultivated in a temperature-constant incubator containing 5% CO2 at 37° C. The cells in exponential growth phase were collected and counted for inoculation. […]

[4] = system: Human Multiple Myeloma Cell KMS-11 (FGFR3 Y373C Mutation); experiment: MTT proliferation inhibition, KMS-11 cells; format: cell-based; conditions: 72 hours drug exposure
Method: as §1, §2, §3
The median inhibitory concentration (IC50) value is obtained by the software GraphPad Prism 5.0 by the 4-parameter logistic curve fit calculation. […]
Cells in the logarithmic phase were inoculated to 96-well culture plates (cell density: 3000/well for KATO-3, 9000/well for KG-1α, 3000/well for KMS-11, cell suspension: 180 μl/well), and cultured at 37° C. under 5% CO2 for 24 hours. […] Cells were cultured at 37° C. for 3-4 hours, and detected for the light density value (OD) at a wavelength of 570 nm. The inhibition rate was calculated based on the collected data.

[5] = KATO3, MTT, 72 hours drug exposure, KATO-3 cells, read-out: KATo-3 (FGFR2 amplification) IC50
[6] = KATO3, 72 h, read-out: KATo-3 (FGFR2 amplification) IC50 (nM)

IC50 ([1]; Homo sapiens) [nM]	IC50 [2, 5] [nM]	Compound	IC50 [2, 6] [nM]	further results
18	6	CCN1CCN(c2ccc(Nc3ncc4c(n3)CCN(c3c(Cl)c(OC)cc(OC)c3Cl)C4)cc2)C(=O)C1 [Compound I-7]		
5	4	CCN1CCN(c2ccc(Nc3ncc4c(n3)CCN(c3c(Cl)c(OC)cc(OC)c3Cl)C4)cn2)CC1 [Compound I-8, 6-(2,6-dichloro-3,5-dimethoxyphenyl)-N-(6-(4-ethylpiperazin-1-yl)pyridin-3-yl)-5,6,7,8-tetrahydropyrido[4,3-d]pyrimidin-2-amine]		
12	21	COc1cc(OC)c(Cl)c(N2CCc3nc(Nc4ccc(N5CCC(N(C)C)CC5)nc4)ncc3C2)c1Cl [Compound I-9, 6-(2,6-dichloro-3,5-dimethoxyphenyl)-N-(6-(4-(dimethylamino)piperidin-1-yl)pyridin-3-yl)-5,6,7,8-tetrahydropyrido[4,3-d]pyrimidin-2-amine]		IC50 ([4]; Homo sapiens): 200 nM
24	7	CCN1CCN(c2ccc(Nc3ncc4c(n3)CCN(c3c(Cl)c(OC)cc(OC)c3Cl)C4)cc2OC)CC1 [Compound I-10, 6-(2,6-dichloro-3,5-dimethoxyphenyl)-N-(4-(4-ethylpiperazin-1-yl)-3-methoxyphenyl)-5,6,7,8-tetrahydropyrido[4,3-d]pyrimidin-2-amine]		
8	4	CCN1CCN(c2ccc(Nc3ncc4c(n3)CCN(c3cc(C(=O)NC)cc(OC)c3Cl)C4)cn2)CC1 [Compound I-11, 4-chloro-3-(2-(6-(4-ethylpiperazin-1-yl)pyridin-3-ylamino)-7,8dihydropyrido[4,3-d]pyrimidin-6(5H)-yl)-5-methoxy-N-methylbenzamide]		
6	3	CNC(=O)c1cc(OC)c(Cl)c(N2CCc3nc(Nc4ccc(N5CCC(N(C)C)CC5)cc4)ncc3C2)c1 [Compound I-13]		
15	23	COc1cc(OC)c(Cl)c(N2CCc3nc(Nc4ccc(N5CCN(CCO)CC5)nc4)ncc3C2)c1Cl [Compound I-14, 2-(4-(5-(6-(2,6-dichloro-3,5-dimethoxyphenyl)-5,6,7,8-tetrahydropyrido[4,3-d]pyrimidin-2-ylamino)pyridin-2-yl)piperazin-1-yl)ethanol]		
2	3	COc1cc(OC)c(Cl)c(N2CCc3nc(Nc4ccc(N5CCC(N(C)C)CC5)cc4)ncc3C2)c1F [Compound I-15, 6-(2-fluoro-6-chloro-3,5-dimethoxyphenyl)-N-(4-(4-(dimethylamino)piperidin-1-yl)phenyl)-5,6,7,8-tetrahydropyrido[4,3-d]pyrimidin-2-amine]		

The remaining lines, values behind:

Compound	IC50 ([1]; Homo sapiens) [nM]	IC50 [2, 5] [nM]	IC50 [2, 6] [nM]	further results
CCN1CCN(c2ccc(Nc3ncc4c(n3)CCN(c3c(Cl)c(OC)cc(OC)c3Cl)C4)cc2)CC1 [Compound I-1, 6-(2,6-dichloro-3,5-dimethoxyphenyl)-N-(4-(4-ethylpiperazin-1-yl)phenyl)-5,6,7,8-tetrahydropyrido[4,3-d]pyrimidin-2-amine]	5	12		
COc1cc(OC)c(Cl)c(N2CCc3nc(Nc4ccc(N5CCN(CC(F)(F)F)CC5)cc4)ncc3C2)c1Cl [Compound I-2, 6-(2,6-dichloro-3,5-dimethoxyphenyl)-N-(4-(4-(2,2,2-trifluoroethyl)piperazin-1-yl)phenyl)-5,6,7,8-tetrahydropyrido[4,3-d]pyrimidin-2-amine]	7		45	
COc1cc(OC)c(Cl)c(N2CCc3nc(Nc4ccc(N5CCN(CCO)CC5)cc4)ncc3C2)c1Cl [Compound I-3, 2-(4-(4-(6-(2,6-dichloro-3,5-dimethoxyphenyl)-5,6,7,8-tetrahydropyrido[4,3-d]pyrimidin-2-ylamino)phenyl)piperazin-1-yl)ethanol]	1		8	
COc1cc(OC)c(Cl)c(N2CCc3nc(Nc4ccc(N5CCN(CCN(C)C)CC5)cc4)ncc3C2)c1Cl [Compound I-4, 6-(2,6-dichloro-3,5-dimethoxyphenyl)-N-(4-(4-(2-(dimethylamino)ethyl)piperazin-1-yl)phenyl)-5,6,7,8-tetrahydropyrido[4,3-d]pyrimidin-2-amine]	2		30	
COc1cc(OC)c(Cl)c(N2CCc3nc(Nc4ccc(N5CCC(N(C)C)CC5)cc4)ncc3C2)c1Cl [Compound I-5, 6-(2,6-dichloro-3,5-dimethoxyphenyl)-N-(4-(4-(dimethylamino)piperidin-1-yl)phenyl)-5,6,7,8-tetrahydropyrido[4,3-d]pyrimidin-2-amine]	2		4	inhibition effect on the growth of subcutaneously transplanted tumors (tumor volume) [3]: better inhibition effect than BGJ398
COc1cc(OC)c(Cl)c(N2CCc3nc(Nc4ccc(N5CCN(C6CC6)CC5)cc4)ncc3C2)c1Cl [Compound I-6, 6-(2,6-dichloro-3,5-dimethoxyphenyl)-N-(4-(4-cyclopropylpiperazin-1-yl)phenyl)-5,6,7,8-tetrahydropyrido[4,3-d]pyrimidin-2-amine]	3		11	
AZD4547 [reference compound]				IC50 [1]: 7 nM; IC50 [4]: 200 nM
